Test results from ChEMBL document CHEMBL1201862, “PubChem BioAssay data set” (2004).
Activity calls are given as the source filed them.

Legend:
[1] = biological target: T1, High affinity choline transporter 1 (Homo sapiens, UniProt Q9GZV3); assay: CHT inhibitors, dose response, cell-based, 10-point CRC, membrane potential dye (AID 588401); type: functional;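 note: membrane potential dye fluorescence of choline-evoked depolarization via CHT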
T1 sequence (Q9GZV3 whole entry): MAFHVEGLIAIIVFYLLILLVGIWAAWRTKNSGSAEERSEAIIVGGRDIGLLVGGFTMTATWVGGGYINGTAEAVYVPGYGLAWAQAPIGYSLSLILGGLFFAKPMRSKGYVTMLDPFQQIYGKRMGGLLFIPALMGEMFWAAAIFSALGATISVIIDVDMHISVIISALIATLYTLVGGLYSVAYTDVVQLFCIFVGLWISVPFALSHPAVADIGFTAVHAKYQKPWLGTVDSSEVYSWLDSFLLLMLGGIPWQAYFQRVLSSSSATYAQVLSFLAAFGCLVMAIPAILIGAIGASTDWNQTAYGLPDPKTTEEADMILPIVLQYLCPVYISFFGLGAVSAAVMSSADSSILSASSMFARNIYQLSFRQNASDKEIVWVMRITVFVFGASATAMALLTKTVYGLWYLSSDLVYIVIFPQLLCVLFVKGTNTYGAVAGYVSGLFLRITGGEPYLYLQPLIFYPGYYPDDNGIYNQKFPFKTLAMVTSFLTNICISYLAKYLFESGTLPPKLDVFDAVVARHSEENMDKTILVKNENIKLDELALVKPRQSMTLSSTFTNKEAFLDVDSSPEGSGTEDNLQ

[2] = biological target: T1, High affinity choline transporter 1; assay: CHT inhibitors, dose response, cell-based, 5-point CRC, membrane potential dye (AID 504840); type: functional
[3] = nonselective inhibitors of cellular cAMP signaling, dose response, counter-screen for MC4R biased antagonist project, cell-based, TR-FRET cAMP detection (AID 602305); type: functional;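 note: U2OS cells stimulated with forskolin near its EC80 as the cAMP inducer; potency is for inhibition of forskolin-stimulated cAMP signaling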
Cytochrome P450 2D6 = Cytochrome P450 2D6 (Homo sapiens, UniProt P10635);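 note: CYP2D6 member of a cytochrome P450 panel assay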
Chain of Cytochrome P450 2D6 (P10635 whole entry): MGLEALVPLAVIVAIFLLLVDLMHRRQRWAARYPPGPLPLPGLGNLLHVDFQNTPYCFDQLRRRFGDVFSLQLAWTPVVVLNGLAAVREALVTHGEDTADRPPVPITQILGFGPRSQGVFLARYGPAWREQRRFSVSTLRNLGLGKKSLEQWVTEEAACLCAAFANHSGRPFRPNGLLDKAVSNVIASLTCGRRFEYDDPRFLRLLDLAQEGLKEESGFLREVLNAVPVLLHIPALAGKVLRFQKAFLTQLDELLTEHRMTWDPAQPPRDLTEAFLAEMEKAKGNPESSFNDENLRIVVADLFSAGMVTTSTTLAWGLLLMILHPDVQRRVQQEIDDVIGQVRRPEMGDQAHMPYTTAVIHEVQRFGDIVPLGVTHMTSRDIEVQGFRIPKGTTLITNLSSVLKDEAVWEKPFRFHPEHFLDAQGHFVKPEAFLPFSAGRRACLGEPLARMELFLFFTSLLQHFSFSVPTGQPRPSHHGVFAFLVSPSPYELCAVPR

Melanocortin receptor 4 = Melanocortin receptor 4 (Homo sapiens, UniProt P32245); assay: MC4R antagonist potency on cAMP, dose response, cell-based, TR-FRET, biased antagonists (AID 602298); type: functional;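 note: antagonist potency against agonist-stimulated cAMP production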
Chain of Melanocortin receptor 4 (P32245 whole entry): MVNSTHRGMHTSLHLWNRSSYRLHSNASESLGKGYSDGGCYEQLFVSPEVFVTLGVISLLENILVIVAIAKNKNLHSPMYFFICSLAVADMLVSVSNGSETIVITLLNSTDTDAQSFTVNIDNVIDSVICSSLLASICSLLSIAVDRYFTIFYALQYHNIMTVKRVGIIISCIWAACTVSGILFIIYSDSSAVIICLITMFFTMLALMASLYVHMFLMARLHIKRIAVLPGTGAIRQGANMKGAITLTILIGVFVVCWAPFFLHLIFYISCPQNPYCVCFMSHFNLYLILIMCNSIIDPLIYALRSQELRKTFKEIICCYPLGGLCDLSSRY

[4] = HEp-2 cell cytotoxicity, dose response, cytotoxicity control for RSV inhibitor project, HTS (AID 2410); type: functional; conditions: human respiratory syncytial virus
H9c2 = assay: cells; type: functional, cell-based; conditions: Rattus norvegicus, H9c2, Myocardium;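 note: confirmatory concentration-response retest of ultra-high-throughput screening hits for modulation of myocardial damage; cell death induced by hydrogen peroxide oxidative stress; compound pretreatment for 60 min then peroxide exposure for 2 h; potency is for protecting the cells against peroxide damage rather than for killing them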
[5] = biological target: T2, Rac GTPase-activating protein 1 (Homo sapiens, UniProt Q9H0H5); assay: MgcRacGAP GTPase-activating activity inhibitors, confirmation, biochemical, ADP Hunter fluorescence, primary and confirmatory (AID 624330); type: functional
T2 sequence (Q9H0H5 whole entry): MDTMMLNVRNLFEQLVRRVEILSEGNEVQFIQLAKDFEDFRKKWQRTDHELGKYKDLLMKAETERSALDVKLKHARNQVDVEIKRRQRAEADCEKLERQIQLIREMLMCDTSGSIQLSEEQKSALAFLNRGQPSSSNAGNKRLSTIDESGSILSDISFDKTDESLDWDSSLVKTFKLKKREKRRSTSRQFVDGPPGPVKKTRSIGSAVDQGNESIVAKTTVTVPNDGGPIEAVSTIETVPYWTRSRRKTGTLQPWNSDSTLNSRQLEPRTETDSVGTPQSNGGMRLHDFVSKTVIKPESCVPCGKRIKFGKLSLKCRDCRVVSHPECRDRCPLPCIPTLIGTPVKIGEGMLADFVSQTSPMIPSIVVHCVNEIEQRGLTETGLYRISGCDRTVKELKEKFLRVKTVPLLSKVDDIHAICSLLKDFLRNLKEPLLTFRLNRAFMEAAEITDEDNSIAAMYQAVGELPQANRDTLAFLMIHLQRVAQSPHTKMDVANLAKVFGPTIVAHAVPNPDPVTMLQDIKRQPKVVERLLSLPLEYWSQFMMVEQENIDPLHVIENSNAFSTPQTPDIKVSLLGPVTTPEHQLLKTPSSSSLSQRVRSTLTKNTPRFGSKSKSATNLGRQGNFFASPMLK

| IC50 [1] | IC50 [2] | Structure (SMILES) | IC50 [3] | IC50 (Melanocortin receptor 4) | other results |
| --- | --- | --- | --- | --- | --- |
| 11.2 µM (active) | 7.86 µM (active) | CCc1ccc(C(C)N=C(S)NC2CCCCC2)cc1 (stereo not given) |  |  |  |
| 6.21 µM (active) | 6.41 µM (active) | NC(=O)CC(NC(=O)c1ccccc1)c1ccc(N2CCCCCCC2)c([N+](=O)[O-])c1 (stereo not given) |  |  |  |
|  |  | COc1ccc(OC)c(C2C3=C(O)CCCC3=NC(C)=C2C(=O)Nc2nc3ccccc3s2)c1 (stereo not given) | > 64.6 µM (inactive) | 12.6 µM (inactive) | AC50 (Cytochrome P450 2D6): 22.4 µM (inconclusive); IC50 (cells): 9.83 µM (active); CC50 [4]: 23.1 µM (active) |
|  |  | CCN(C[C@H]1N[C@@](CC)(C(=O)OC)[C@H]2C(=O)N(Cc3ccccc3)C(=O)[C@@H]12)C(=O)c1ccc(C(C)(C)C)cc1 | > 64.6 µM (inactive) | > 64.6 µM (inactive) | IC50 (H9c2): > 79 µM (inactive) |
|  |  | CCOC(=O)c1sc(S)nc1C | 44.7 µM (inactive) | 18.2 µM (inactive) | IC50 [5]: 50 µM (active) |
